Test results reported in patent US8680065B2, “Oligonucleotides of human endogenous retrovirus 9 (ERV-9) long terminal repeat (LTR) and methods of use” (The United States of America, as represented by the …, priority 2008, dated 2014).

Tests used:
MCF-7 cells = assay: Tumor cell proliferation, siRNA in LIPOFECTAMINE, 72 hours; format: cell-based, human; conditions: siRNA 100 nM
Procedure: (§1) FIG. 20 is a pair of graphs showing the effect of ERV-9 LTR U3 region siRNA (SEQ ID NOs: 13 and 14), alone or in combination with VP16, on proliferation of MDA-231 (top) and MCF-7 (bottom) cells. 4×10^4 cells were treated with siRNAs formulated in LIPOFECTAMINE™ at 100 nM for 72 hours. RRM2 is a combination of three siRNAs (SEQ ID NOs: 15, 16, and 17) against ribonucleotide reductase subunit M2. Relative cell proliferation levels were expressed as percentage of non-treated control.
(§2) 4×10^4 cells were treated with siRNAs formulated in LIPOFECTAMINE™ at 100 nM for 72 hours. […] For RRM2, a combination of the 3 siRNAs was used at final concentration of 100 nM. Relative cell proliferation levels were expressed as percentage of non-treated control. Student's t-test was used for statistics.

MDA-231 cells [1] = assay: as above; format: cell-based, human; conditions: siRNA 100 nM
Procedure: as §1, §2

[2] = system: MDA-231 cells (a breast cancer cell line); assay: Cancer cell proliferation, oligonucleotide in LIPOFECTAMINE, 48 hours, direct cell counting; format: cell-based, human; conditions: oligonucleotide 10, 20 or 30 μg/ml, P<0.05
[3] = system: LNcaP cells (a prostate cancer cell line); assay: as above; format: cell-based, human; conditions: oligonucleotide 10, 20 or 30 μg/ml
MDA-231 cells [4] = assay: Cancer cell proliferation, oligonucleotide in combination with VP16, 48 hours; format: cell-based, human; conditions: oligonucleotide 15 μg/ml with VP16 30 ng/ml and 50 ng/ml, P<0.05
LNcaP cells = assay: as above; format: cell-based, human; conditions: oligonucleotide 15 μg/ml with VP16 30 ng/ml and 50 ng/ml
Procedure: FIG. 10 is a graph showing proliferation of LNcaP cells treated with ERV-9 U3 sense or antisense oligonucleotide (SEQ ID NOs: 1 and 2, respectively), in combination with VP16. Cells (4×10^4) were treated with oligonucleotide (15 μg/ml) alone or in combination with the concentrations of VP16 shown for 48 hours.
To test the effect of treating cancer cells with the combination of ERV-9 U3 oligonucleotide and VP16, six different cancer cell lines were analyzed: HT1080, (FIG. 7); MDA-231 (FIG. 8); K562 (FIG. 9); LNcaP (FIG. 10); HepG2 (FIG. 11); and MCF-7 (FIG. 12). Cells (4×10^4) were treated with 15 μg/ml ERV-9 U3 sense (SEQ ID NO: 1) or antisense (SEQ ID NO: 2) oligonucleotide alone or in combination with VP16 at a concentration of 30 ng/ml or 50 ng/ml. After 48 hours, cell proliferation was assessed by direct cell counting. Cell proliferation levels were expressed relative to GFP oligonucleotide control in the absence of VP16.

HT1080 cells = assay: Cancer cell proliferation, U3 and U5 oligonucleotides, 72 hours; format: cell-based, human; conditions: 20 μg/ml
Procedure: FIG. 16 is a graph showing the effect of sense and antisense ERV-9 U3 (SEQ ID NOs: 1, 2, 7, 8, 9, and 10) and U5 (SEQ ID NOs: 11 and 12) oligonucleotides on proliferation of HT1080 cells. Cells (4×10^4) were treated with oligonucleotide formulated in LIPOFECTAMINE™ at a concentration of 20 μg/ml for 72 hours. GFP sense oligonucleotide was used as a control to measure the non-specific cytotoxicity of phosphorothioate-based oligonucleotides. Antisense oligonucleotides G3139, GRN163, and MDM2 were also evaluated. Cell proliferation levels were expressed relative to cells transfected with GFP oligonucleotide. All U3 and U5 sense and antisense oligonucleotides inhibited cell proliferation to a greater extent that GFP control. In addition, with the exception of the U5 sense oligonucleotide, all U3 and U5 oligonucleotides inhibited cell proliferation better than the G3139, GRN163 and MDM2 antisense oligonucleotides.
(§3) HT1080 or MDA-231 cells (4×10^4 cells) were treated with ERV-9 LTR (U3 or U5) sense or antisense oligonucleotides formulated in LIPOFECTAMINE™ at a concentration of 20 μg/ml for 72 hours. GFP sense oligonucleotide was used as a control to measure the non-specific cytotoxicity of phosphorothioates-based oligonucleotides. Relative cell proliferation levels were expressed as percentage of GFP oligonucleotide transfected control. The results are shown in FIG. 16 (HT1080 cells) and FIG. 17 (MDA-231 cells).

MDA-231 cells [5] = assay: as above; format: cell-based, human; conditions: 20 μg/ml
Procedure: FIG. 17 is a graph showing the effect of sense and antisense ERV-9 U3 and (SEQ ID NOs: 1, 2, 7, 8, 9, and 10) and U5 (SEQ ID NOs: 11 and 12) oligonucleotides on proliferation of MDA-231 cells. Cells (4×10^4) were treated with oligonucleotide formulated in LIPOFECTAMINE™ at a concentration of 20 μg/ml for 72 hours. GFP sense oligonucleotide and G3139, GRN163 and MDM2 antisense oligonucleotides were included as controls. Cell proliferation levels were expressed relative to cells transfected with GFP oligonucleotide. All U3 and U5 sense and antisense oligonucleotides inhibited cell proliferation better than GFP control and the G3139, GRN163 and MDM2 antisense oligonucleotides.
as §3

tumor = conditions: U.S. Pat. Nos. 7,256,284 and 6,946,447; Ozawa et al. 2004; cited from earlier work

Substance | cell proliferation relative to GFP oligonucleotide [2] | cell proliferation relative to GFP oligonucleotide [3] | cell proliferation relative to GFP oligonucleotide control (MDA-231 cells [4]) | cell proliferation relative to GFP oligonucleotide control (LNcaP cells) | cell proliferation relative to GFP oligonucleotide transfected control (HT1080 cells) | cell proliferation relative to GFP oligonucleotide transfected control (MDA-231 cells [5]) | tumor growth in animal models (tumor) | also measured
ERV-9 LTR U3 siRNA: siRNA duplex of the ERV9 LTR U3 region: CUCAAGGUUUGUAAACACACCAAUCAG and CUGAUUGGUGUGUUUACAAACCUUGAG (listed as RNA, chemistry not given here) | – | – | – | – | – | – | – | cell proliferation as percentage of non-treated control (MCF-7 cells): inhibited cell proliferation better than RRM2 siRNAs; cell proliferation as percentage of non-treated control (MDA-231 cells [1]): inhibited cell proliferation better than RRM2 siRNAs
G3139: antisense oligonucleotide specific for Bcl-2, TCTCCCAGCGTGCGCCAT (listed as DNA, chemistry not given here) [Oligo G3139] | inhibited cell proliferation only at oligonucleotide concentrations of 20 μg/ml and 30 μg/ml | did not significantly inhibit cell proliferation at any of the three concentration levels | inhibited cell proliferation only at a VP16 concentration of 50 ng/ml | did not inhibit cell proliferation at any VP16 concentration tested | inhibited cell proliferation better than the GFP oligonucleotide control | inhibited cell proliferation better than the GFP control oligonucleotide | has been previously shown to inhibit tumor growth in animal models | –
GRN163: antisense oligonucleotide specific for telomerase, TAGGGTTAGACAA (listed as DNA, further chemistry not given here) | inhibited cell proliferation only at concentrations of 10 μg/ml and 20 μg/ml | did not significantly inhibit cell proliferation at any of the three concentration levels | inhibited cell proliferation only at a VP16 concentration of 50 ng/ml | did not inhibit cell proliferation at any VP16 concentration tested | – | inhibited cell proliferation better than the GFP control oligonucleotide | has been previously shown to inhibit tumor growth in animal models | –
MDM2 antisense oligonucleotide: antisense oligonucleotide specific for MDM2, TGACACCTGTTCTCACTCAC (listed as DNA, chemistry not given here) | inhibited cell proliferation only at concentrations of 10 μg/ml and 20 μg/ml | inhibited cell proliferation only at a concentration of 10 μg/ml | inhibited cell proliferation only at a VP16 concentration of 50 ng/ml | inhibited cell proliferation better than GFP control only at a VP16 concentration of 30 ng/ml | inhibited cell proliferation better than the GFP oligonucleotide control | inhibited cell proliferation better than the GFP control oligonucleotide | has been previously shown to inhibit tumor growth in animal models | –
U3AS4: ERV-9 U3 antisense oligonucleotide GCGGCGCTCGTCGGCGAGGCACGG, target nt 3096-3119 (AF064190) (listed as DNA, chemistry not given here) [Oligo U3AS4] | – | – | – | – | inhibited cell proliferation better than G3139, GRN163 and MDM2 oligonucleotides | – | – | –
U3AS5: ERV-9 U3 antisense oligonucleotide CCGACCGGTTCCGGTCTCGGCCGAGG, target nt 2792-2817 (AF064190) (listed as DNA, chemistry not given here) [Oligo U3AS5] | – | – | – | – | inhibited cell proliferation better than G3139, GRN163 and MDM2 oligonucleotides | – | – | –
U3S4: ERV-9 U3 sense oligonucleotide CCGAGCCTCGCCGACGAGCGCCGC, target nt 3096-3119 (AF064190) (listed as DNA, chemistry not given here) [Oligo U3S4] | – | – | – | – | inhibited cell proliferation better than G3139, GRN163 and MDM2 oligonucleotides | – | – | –
U3S5: ERV-9 U3 sense oligonucleotide GGCTGGCCAAGGCCAGAGCCGGCTCC, target nt 2792-2817 (AF064190) (listed as DNA, chemistry not given here) [Oligo U3S5] | – | – | – | – | inhibited cell proliferation better than G3139, GRN163 and MDM2 oligonucleotides | – | – | –
U5AS: ERV-9 U5 antisense oligonucleotide GTTCTGATGTTTGGATGTGTTC, target nt 819-840 (AF064191) (listed as DNA, chemistry not given here) [Oligo U5AS] | – | – | – | – | inhibited cell proliferation better than G3139, GRN163 and MDM2 oligonucleotides | – | – | –
U5S: ERV-9 U5 sense oligonucleotide GAACACATCCAAACATCAGAAC, target nt 819-840 (AF064191) (listed as DNA, chemistry not given here) [Oligo U5S] | – | – | – | – | inhibited cell proliferation better than the GFP oligonucleotide control | – | – | –
